These results are taken from patent publication US7285555B2, “6-aryl-7-halo-imidazo[1,2-a]pyrimidines as anticancer agents” (Wyeth Holdings Corporation, priority 2003, dated 2007).

Some results are limits rather than exact numbers.

For one test, the system named is KB cells. Kind of test: MTS cytotoxicity test procedure with KB cells. In kind it is cell-based. To be noted: Homo sapiens, MTS assay, means of 2 independent experiments. From the text:
Human cancer cell lines, unless otherwise noted, are obtained from the American Type Culture Collection (Rockville, Md.). […]
The MTS assay, which is sold in kit form by Promega (Madison, Wis.; CellTiter 96 AQueous Non-Radioactive Cell Proliferation Assay), is based on the conversion by viable cells, but not by dead cells, of the tetrazolium salt, MTS (3-(4,5-dimethylthiazol-2-yl)-5-(3-carboxymethoxyphenyl)-2-(4-sulphophenyl)-2H-tetrazolium, inner salt), into a water-soluble colored formazan which is detected by spectrophotometry. […] For the test procedure, cells are harvested by trypsinization (or, in the case of non-adherent cells, by simple resuspension), washed, counted and distributed to wells of 96-well flat-bottom microtiter plates at 1000 cells per well in 200 μL of medium. […]
(§1) After three days of culture with test compounds (day 5 overall), the MTS assay is done on all wells of the experimental plates. The absorbance values of the quadruplicate sample wells are averaged and divided by the average of the “time 0” values. […]

The test system of a further test is HL-60/ADR cells. Briefly: MTS cytotoxicity test procedure with HL-60/ADR cells. In kind it is cell-based, human. To be noted: for Ratio: IC50 on HL-60/ADR cells/IC50 on HL-60 cells. From the text:
(§2) Human cancer cell lines, unless otherwise noted, are obtained from the American Type Culture Collection (Rockville, Md.). The following drug-sensitive parental cell lines, and their derived drug-resistant counterparts, are obtained from the originators as listed: (a) S1 (parental line from a subclone of human colon carcinoma line LS174T) and derived S1-M1-3.2 (herein called S1-M1) which expresses the MXR drug transporter protein, are provided by Dr. L. Greenberger, Wyeth Research (Rabindran, S. K., He, H., Singh, M., Brown, E., Collins, K. I., Annable, T., and Greenberger, L. M. Reversal of a novel multidrug resistance mechanism in human colon carcinoma cells by fumitremorgin C. Cancer Res., 58: 5850-5858,1998); (b) parental HL-60 human promyelocytic leukemia line and derived HL-60/ADR, which expresses the MRP1 drug transporter protein, are provided by Dr. M. Center, University of Kansas (McGrath, T., and Center, M. S. Adriamycin resistance in HL60 cells in the absence of detectable P-glycoprotein. Biochem. Biophys. […] J. Biol. Chem., 261: 7762-7770, 1986) via Dr. L. Greenberger, Wyeth Research.
(§3) The MTS assay, which is sold in kit form by Promega (Madison, Wis.; CellTiter 96 AQueous Non-Radioactive Cell Proliferation Assay), is based on the conversion by viable cells, but not by dead cells, of the tetrazolium salt, MTS (3-(4,5-dimethylthiazol-2-yl)-5-(3-carboxymethoxyphenyl)-2-(4-sulphophenyl)-2H-tetrazolium, inner salt), into a water-soluble colored formazan which is detected by spectrophotometry. Compounds are tested at nine concentrations, in order to determine IC50 values. For the test procedure, cells are harvested by trypsinization (or, in the case of non-adherent cells, by simple resuspension), washed, counted and distributed to wells of 96-well flat-bottom microtiter plates at 1000 cells per well in 200 μL of medium. In addition, one row of wells on a separate plate receives cells as above (“time 0” plate). All plates are incubated at 370 in humidified 5% CO2 in air for about 24 hr.
(§4) On day 2, compounds for test are diluted and added to wells. Compounds are dissolved in DMSO at 10 mg/mL. For each compound, nine serial 2-fold dilutions are prepared in DMSO. Ten μL of each dilution in DMSO is transferred to 100 μL of medium, mixed well, and then 5 μL of this dilution is transferred in quadruplicate to wells containing cells. […] Plates are returned to the incubator for three days. At the time of drug addition to the experimental plates, the MTS assay is run on the “time 0” plate.
After three days of culture with test compounds (day 5 overall), the MTS assay is done on all wells of the experimental plates. The absorbance values of the quadruplicate sample wells are averaged and divided by the average of the “time 0” values. […] The nine values for each compound are plotted against concentration, and the concentration that produces a relative color yield half way between the maximum and minimum is taken as the IC50 value.
HL-60/ADR cells overexpress the multidrug resistance protein MRP1 which mediates resistance to some chemotherapeutics (Gottesman, M. M., Fojo, T., and Bates, S. E. Multidrug resistance in cancer: role of ATP-dependent transporters. Nature Rev. Cancer, 2: 48-58, 2002). The IC50 values of example 6 of this invention, as well as reference compounds, on HL-60/ADR are compared to values on the sensitive parental HL-60 line.
A general note: Tetrazolium dyes change colour on reduction, which living cells bring about.

The test system of the next test is S1-M1 cells. Briefly: MTS cytotoxicity test procedure with S1-M1 cells. The format is cell-based, human. To be noted: for Ratio: IC50 on S1-M1 cells/IC50 on S1 cells.
Description: as §2, §3, §4, §1

The next test has as its system KB-V1 cells. Kind of test: SRB cytotoxicity test procedure with KB-V1 cells. In kind it is cell-based, human. To be noted: SRB assay; for Ratio VI/KB: IC50 on KB VI cells/IC50 on KB cells.
Description: as §2
(§5) The SRB standard cytotoxicity assay is done according to previously reported methods (Discafani, C. M., Carroll, M. L., Floyd Jr., M. B. F., Hollander, I. J., Husain, Z., Johnson, B. D., Kitchen, D., May, M. K., Malo, M. S., Minnick Jr., A. A., Nilakantan, R., Shen, R., Wang Y-F., Wissner, A., Greenberger, L. M. Irreversible inhibition of epidermal growth factor receptor tyrosine kinase with in vivo activity by N-[4-[3-bromophenyl)amino]-6-quinaxolinyl]-2-butynamide (CL-387,785). Biochem. Pharmacol., 57: 917-925, 1999). Briefly, cells are plated in 100 μL of medium in 96-well flat-bottom microtiter plates in the morning of day 1 and allowed to adhere to the plates for 2-6 hr. Compounds are serially diluted into medium as 2× stocks and 100 μL of these stocks are added to cells in duplicate. Compounds are incubated with cells for 3 days. At the end of the incubation period the sulforhodamine B (SRB) assay, which measures protein content as an assessment of cell survival, is performed as described previously (Skehan, P., Storeng, R., Scudiero, D., Monks, A., McMahon, J., Vistica, D., Warren, J. T., Bokesch, H., Kenney, S., Boyd, M. R. New calorimetric cytotoxicity assay for anticancer-drug screening. J. Natl. Cancer Inst., 82:1107-1112, 1990) with some modifications. Medium is gently decanted from plates and replaced with 200 μL per well of cold serum-free medium containing a final concentration of 10% trichloroacetic acid. The plates are incubated for 1 hr at 40, washed 5 times in cold distilled water, and air-dried overnight. The fixed cells are stained for 10 min with 80 μL per well of 0.04% SRB solution prepared in 1% glacial acetic acid. Staining solution is decanted, plates are washed 5 times in 1% glacial acetic acid, and then air-dried until completely dry. Stained cell product is dissolved in 150 μL per well of 10 mM Trizma Base with shaking for 20 minutes. Absorbance is read on a Victor V multi-label plate reader (Perkin Elmer, Gaithersburg, Md.).
The KB lines express different amounts of the P-glycoprotein (MDR1) membrane pump which produces resistance to the action of many cytotoxic compounds, including paclitaxel and vincristine. The parental KB line expresses no P-glycoprotein, KB-8-5 expresses moderate levels of the protein, and KB-V1 expresses very high levels.
For orientation: The SRB assay estimates cell density from bound dye.

Another test deals with KB-8-5 cells. Kind of test: SRB cytotoxicity test procedure with KB-8-5 cells. In kind it is cell-based, human. To be noted: SRB assay.
Description: as §2
as §5, with “The fixed cells are stained for 10 min with 80 μL per well of 0.04% SRB solution prepared in 1% glacial acetic acid. Staining solution is decanted, plates are washed 5 times in 1% glacial acetic acid, and then air-dried until completely dry. Stained cell product is dissolved in 150 μL per well of 10 mM Trizma Base with shaking for 20 minutes.” left out, “Md.). […]” for “Md.).”

The IC50 is the concentration that gives 50% inhibition. Read a low IC50 as higher potency.

As to `CN(C)CCCOc1cc(F)c(-c2c(Cl)nc3nccn3c2C2CCCCCC2)c(F)c1` [Example 6, 3-[4-(7-Chloro-5-cycloheptylimidazo[1,2-a]pyrimidin-6-yl)-3,5-difluorophenoxy]-N,N-dimethylpropan-1-amine], the half-maximal inhibitory concentration (IC50) is 0.044 µM in the test on KB cells; 0.029 µM with HL-60/ADR cells (Homo sapiens, HL60/ADR, MTS assay, HL-60/ADR cells, means of 2 independent experiments); 0.068 µM with S1-M1 cells (Homo sapiens, MTS assay, S1-M1 cells, means of 2 independent experiments). The Ratio is recorded as 0.55 in the test with HL-60/ADR cells, “no resistance” with HL-60/ADR cells (listed as example 6), 1.1 with S1-M1 cells and “no resistance” with S1-M1 cells (listed as example 6).

On to `CC(=O)O[C@H]1C(=O)[C@@]2(C)[C@H]([C@H](OC(=O)c3ccccc3)[C@]3(O)C[C@H](OC(=O)[C@H](O)[C@@H](NC(=O)c4ccccc4)c4ccccc4)C(C)=C1C3(C)C)[C@]1(OC(C)=O)CO[C@@H]1C[C@@H]2O` [Paclitaxel, reference compound], for which the IC50 in the test on KB-V1 cells (Homo sapiens, KB-V1, KB VI cells, means of 2 independent experiments) was > 3 µM; with KB-8-5 cells (Homo sapiens, KB 8.5 cells, means of 2 independent experiments), 0.034 µM. Besides, the figures for the “Ratio VI/KB” value in the test on KB-V1 cells and in the test on KB-V1 cells (listed as paclitaxel) were >1360 and > 1,360, respectively. Also, the “Ratio 8.5/KB” value in the test with KB-8-5 cells (IC50 on KB 8.5 cells/IC50 on KB cells) came out at 16.
